According to US20260258064A1 (SIRONAX LTD., priority 2023, published 2026):

The molecules below were run against T1, SARM1 (50-724) (Homo sapiens, UniProt Q6SZW1) (assay: SARM1 (50-724) enzymatic assay (LC-MS/MS)). Details: Purified SARM1 (50-724) 2 nM, NMN as activator, NAD+ as substrate, 1 h at room temperature, read-out: IC50 (SARM1 inhibitory activity).
T1 construct: Purified SARM1 (50-724) with a final concentration of 2 nM was pre-incubated with a test compound
T1 sequence (Q6SZW1 50-724): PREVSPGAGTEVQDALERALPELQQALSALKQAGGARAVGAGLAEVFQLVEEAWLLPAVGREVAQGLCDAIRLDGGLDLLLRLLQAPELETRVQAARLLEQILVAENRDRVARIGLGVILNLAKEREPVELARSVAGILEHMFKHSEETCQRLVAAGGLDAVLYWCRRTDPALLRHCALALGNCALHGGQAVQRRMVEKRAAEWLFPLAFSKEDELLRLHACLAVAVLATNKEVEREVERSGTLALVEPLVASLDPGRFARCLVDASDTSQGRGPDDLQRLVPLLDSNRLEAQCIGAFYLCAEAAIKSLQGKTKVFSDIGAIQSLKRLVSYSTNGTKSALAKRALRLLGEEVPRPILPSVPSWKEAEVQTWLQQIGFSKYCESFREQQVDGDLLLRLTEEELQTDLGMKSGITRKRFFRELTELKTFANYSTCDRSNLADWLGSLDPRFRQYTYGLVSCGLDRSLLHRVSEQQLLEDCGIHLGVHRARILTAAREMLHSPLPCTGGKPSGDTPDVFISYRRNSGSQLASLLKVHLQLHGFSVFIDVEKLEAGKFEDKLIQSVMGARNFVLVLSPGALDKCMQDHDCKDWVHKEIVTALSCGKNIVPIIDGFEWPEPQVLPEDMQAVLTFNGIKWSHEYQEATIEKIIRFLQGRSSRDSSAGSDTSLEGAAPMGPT
Format: biochemical
How it was run: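 Reaction buffer was Dulbecco's PBS. Compound and 2 nM human SARM1 (50-724) were pre-incubated 15 min at room temperature, then […] NAD^+ and 200 µM NMN activator were added for 1 h at room temperature. Acetonitrile (70%) stop, LC-MS/MS read-out, IC50 values.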

IC50	SMILES
100 to 500 nM	Fc1cc(Oc2nccs2)cc2nc(-c3nncn3-c3cnccc3C(F)(F)F)[nH]c12 [Compound 446, 2-((7-fluoro-2-(4-(4-(trifluoromethyl)pyridin-3-yl)-4H-1,2,4-triazol-3-yl)-1H-benzo[d]imidazol-5-yl)oxy)thiazole]
> 1000 nM	Cc1ccc2[nH]c(C3=C(C4CCCC4)COC3=O)nc2c1 [Compound 9, 4-Cyclopentyl-3-(5-methyl-1H-benzo[d]imidazol-2-yl)furan-2(5H)-one]
≤ 100 nM	CCc1ccc2[nH]c(-c3nncn3-c3cnccc3C(F)(F)F)nc2c1 [Compound 277, 5-ethyl-2-(4-(4-(trifluoromethyl)pyridin-3-yl)-4H-1,2,4-triazol-3-yl)-1H-benzo [d]imidazole]
> 1000 nM	FC(F)(F)c1ccc2[nH]c(N3CCSCC3c3ccccc3)nc2c1 (centres unmarked) [Compound 319, 3-phenyl-4-(5-(trifluoromethyl)-1H-benzo[d]imidazol-2-yl)thiomorpholine]
≤ 100 nM	[2H]c1nnc(-c2nc3cc(C4([2H])CC4)cc(F)c3[nH]2)n1-c1cnccc1C(F)(F)F [Compound 359, 5-(cyclopropyl-1-d)-7-fluoro-2-(4-(4-(trifluoromethyl)pyridin-3-yl)-4H-1,2,4-triazol-3-yl-5-d)-1H-benzo[d]imidazole]
≤ 100 nM	CC(=O)c1ccc2[nH]c(-c3nncn3-c3ccc(F)c(F)c3Cl)nc2c1 [Compound 158, 1-(2-(4-(2-chloro-3,4-difluorophenyl)-4H-1,2,4-triazol-3-yl)-1H-benzo[d]imidazol-5-yl)ethan-1-one]
> 1000 nM	Cc1ccc2[nH]c(-c3n[nH]c(=O)n3C3CCCC3)nc2c1 [Compound 14]
> 1000 nM	CP(C)(=O)c1ccc(Cl)c(-n2cnnc2-c2nc3cc(C(F)(F)F)ccc3[nH]2)c1 [Compound 244, (4-chloro-3-(3-(5-(trifluoromethyl)-1H-benzo[d]imidazol-2-yl)-4H-1,2,4-triazol-4-yl)phenyl)dimethylphosphine oxide]
100 to 500 nM	FC(F)(F)c1ccc2[nH]c(-c3nocc3-c3cccc(Cl)c3Cl)nc2c1 [Compound 322, 4-(2,3-dichlorophenyl)-3-(5-(trifluoromethyl)-1H-benzo[d]imidazol-2-yl)isoxazole]
≤ 100 nM	CS(=O)(=O)Cc1nnc(-c2nc3c(F)c(C(F)(F)F)ccc3[nH]2)n1-c1cccc(F)c1Cl (single isomer, unassigned) [Compound 197, 2-(4-(2-chloro-3-fluorophenyl)-5-((methylsulfonyl)methyl)-4H-1,2,4-triazol-3-yl)-4-fluoro-5-(trifluoromethyl)-1H-benzo[d]imidazole]
≤ 100 nM	Cc1cnn(-c2cc(F)c3[nH]c(-c4nncn4-c4cnccc4C(F)(F)F)nc3c2)c1 [Compound 400, 7-fluoro-5-(4-methyl-1H-pyrazol-1-yl)-2-(4-(4-(trifluoromethyl)pyridin-3-yl)-4H-1,2,4-triazol-3-yl)-1H-benzo[d]imidazole]
≤ 100 nM	CC(c1cc(F)c2[nH]c(-c3nncn3-c3cnccc3C(F)(F)F)nc2c1)n1cccn1 (centres unmarked) [Compound 454, 5-(1-(1H-pyrazol-1-yl)ethyl)-7-fluoro-2-(4-(4-(trifluoromethyl)pyridin-3-yl)-4H-1,2,4-triazol-3-yl)-1H-benzo[d]imidazole]
≤ 100 nM	CCC(c1ccc2[nH]c(-c3nncn3-c3ccncc3OC(F)(F)F)nc2c1)C(F)F (centres unmarked) [Compound 238, 5-(1,1-difluorobutan-2-yl)-2-(4-(3-(trifluoromethoxy)pyridin-4-yl)-4H-1,2,4-triazol-3-yl)-1H-benzo[d]imidazole]
≤ 100 nM	Cn1cc(OC(F)(F)F)c(-n2cnnc2-c2nc3cc(C4CC4)cc(F)c3[nH]2)cc1=O [Compound 353, 4-(3-(5-cyclopropyl-7-fluoro-1H-benzo[d]imidazol-2-yl)-4H-1,2,4-triazol-4-yl)-1-methyl-5-(trifluoromethoxy)pyridin-2(1H)-one]
≤ 100 nM	CC(C)(C(N)=O)c1ccc2[nH]c(-c3nncn3-c3cccc(Cl)c3Cl)nc2c1 [Example 107]
> 1000 nM	Cc1ccc2[nH]c(-c3ncnn3C3CCCC3)nc2c1 [Compound 10, 2-(2-cyclopentyl-1,2,4-triazol-3-yl)-5-methyl-1H-benzimidazole]
≤ 100 nM	FC(F)(F)c1ccc2[nH]c(-c3nncn3-c3cc4nccn4cc3C(F)(F)F)nc2c1 [Compound 236, 5-(trifluoromethyl)-2-(4-(6-(trifluoromethyl)imidazo[1,2-a]pyridin-7-yl)-4H-1,2,4-triazol-3-yl)-1H-benzo[d]imidazole]
100 to 500 nM	Cc1nsc(-n2cnnc2-c2nc3cc(C(F)(F)F)ccc3[nH]2)c1Cl [Compound 69]
≤ 100 nM	FC(F)(F)c1ccc2[nH]c(-c3nncn3-c3cnccc3C(F)(F)F)c(-c3ccncc3)c2c1 [Compound 386, 3-(4-pyridyl)-5-(trifluoromethyl)-2-[4-[4-(trifluoromethyl)-3-pyridyl]-1,2,4-triazol-3-yl]-1H-indole]
≤ 100 nM	N#CC1(c2ccc3[nH]c(-c4nncn4-c4ccc(F)c(F)c4Cl)nc3c2)CC1 [Example 135]
> 1000 nM	CS(=O)(=O)Cc1nnc(-c2nc3c(F)c(C(F)(F)F)ccc3[nH]2)n1-c1cccc(F)c1Cl (single isomer, unassigned) [Compound 196, 2-(4-(2-chloro-3-fluorophenyl)-5-((methylsulfonyl)methyl)-4H-1,2,4-triazol-3-yl)-4-fluoro-5-(trifluoromethyl)-1H-benzo[d]imidazole]
≤ 100 nM	NC(=O)C1(c2ccc3[nH]c(-c4nncn4-c4ccc(F)c(F)c4Cl)nc3c2)CC1 [Compound 171, 1-(2-(4-(2-chloro-3,4-difluorophenyl)-4H-1,2,4-triazol-3-yl)-1H-benzo[d]imidazol-5-yl)cyclopropane-1-carboxamide]
≤ 100 nM	Fc1ccc(-n2cnnc2-c2nc3cc(C(F)(F)F)ccc3[nH]2)c(Cl)c1F [Example 120]
≤ 100 nM	CC(C#N)(CO)c1ccc2[nH]c(-c3nncn3-c3cccc(F)c3Cl)nc2c1 (centres unmarked) [Compound 204, 2-(2-(4-(2-chloro-3-fluorophenyl)-4H-1,2,4-triazol-3-yl)-1H-benzo[d]imidazol-5-yl)-3-hydroxy-2-methylpropanenitrile]
≤ 100 nM	N#CC1(c2c(-c3nncn3-c3cnccc3C(F)(F)F)[nH]c3ccc(C(F)(F)F)cc23)CC1 [Compound 425, 1-[5-(trifluoromethyl)-2-[4-[4-(trifluoromethyl)-3-pyridyl]-1,2,4-triazol-3-yl]-1H-indol-3-yl]cyclopropanecarbonitrile]
100 to 500 nM	Cn1cc(-c2ccccc2Cl)c(-c2nc3cc(C(F)(F)F)ccc3[nH]2)cc1=O [Example 75]
≤ 100 nM	FC(F)(F)c1ccc2[nH]c(-c3nnc(COC4COC4)n3-c3cccc(Cl)c3Cl)nc2c1 [Example 124]
≤ 100 nM	FC(F)(F)c1ccc2[nH]c(-c3nncn3-c3c(Cl)cccc3Cl)nc2c1 [Compound 149, 2-(4-(2,6-dichlorophenyl)-4H-1,2,4-triazol-3-yl)-5-(trifluoromethyl)-1H-benzo[d]imidazole]
≤ 100 nM	FC(F)(F)c1cnc2[nH]c(-c3nncn3-c3cnccc3C(F)(F)F)cc2c1 [Compound 287, 5-(trifluoromethyl)-2-(4-(4-(trifluoromethyl)pyridin-3-yl)-4H-1,2,4-triazol-3-yl)-1H-pyrrolo[2,3-b]pyridine]
